Results: the NIST ThermoML archive (doi:10.1021/je050333h)
± gives the expanded uncertainty stated by the source.

Experiment: cn = amount concentration of the nth substance listed, in mol/dm3
Settings: 101 kPa, Liquid; for speed of sound: Sing-around technique in a fixed-path interferometer

CCCCC(CC)COC(=O)CC(C(=O)OCC(CC)CCCC)S(=O)(=O)[O-].[Na+] (stereo not given) [sodium bis(2-ethylhexyl) sulfosuccinate] + CC(C)CC(C)(C)C
Settings | kinematic viscosity [m2/s] | mass density [kg/m3] | speed of sound [m/s]
293.15 K, c1 = 0.0993 | 8.03e-07 ± 1.4e-08 | 704.23 ± 6.1 | 1103.5 ± 1.3
293.15 K, c1 = 0.2006 | 9.05e-07 ± 1.5e-08 | 718.92 ± 5.8 | 1104 ± 1.3
293.15 K, c1 = 0.302 | 1.04e-06 ± 1.7e-08 | 736.65 ± 5.5 | 1105.7 ± 1.3
293.15 K, c1 = 0.4037 | 1.21e-06 ± 2e-08 | 754.54 ± 5.3 | 1107.9 ± 1.3
293.15 K, c1 = 0.5242 | 1.52e-06 ± 2.5e-08 | 775.5 ± 4.9 | 1111.5 ± 1.3
293.15 K, c1 = 0.6067 | 1.83e-06 ± 3e-08 | 794.1 ± 4.6 | 1115.2 ± 1.3
293.15 K, c1 = 0.7046 | 2.28e-06 ± 3.7e-08 | 812.69 ± 4.3 | 1120.4 ± 1.3
293.15 K, c1 = 0.8053 | 2.96e-06 ± 4.7e-08 | 829.38 ± 4.1 | 1126.2 ± 1.3
293.15 K, c1 = 0.9065 | 4.07e-06 ± 6.5e-08 | 847.23 ± 3.8 | 1133.6 ± 1.3
293.15 K, c1 = 1.012 | 5.97e-06 ± 8.9e-08 | 865.07 ± 3.5 | 1142.4 ± 1.3
298.15 K, c1 = 0.0987 | 7.58e-07 ± 1.3e-08 | 700.09 ± 6.1 | 1082.4 ± 1.3
298.15 K, c1 = 0.1994 | 8.56e-07 ± 1.5e-08 | 714.76 ± 5.9 | 1083.1 ± 1.3
298.15 K, c1 = 0.3003 | 9.87e-07 ± 1.7e-08 | 732.48 ± 5.6 | 1085.1 ± 1.3
298.15 K, c1 = 0.4017 | 1.14e-06 ± 1.9e-08 | 750.77 ± 5.3 | 1087.3 ± 1.3
298.15 K, c1 = 0.5213 | 1.42e-06 ± 2.3e-08 | 771.2 ± 5 | 1091.2 ± 1.3
298.15 K, c1 = 0.6034 | 1.67e-06 ± 2.7e-08 | 789.8 ± 4.7 | 1095 ± 1.3
298.15 K, c1 = 0.701 | 2.1e-06 ± 3.3e-08 | 808.51 ± 4.4 | 1100.4 ± 1.3
298.15 K, c1 = 0.8013 | 2.76e-06 ± 4.3e-08 | 825.19 ± 4.1 | 1106.5 ± 1.3
298.15 K, c1 = 0.902 | 3.73e-06 ± 5.7e-08 | 843 ± 3.9 | 1113.8 ± 1.3
298.15 K, c1 = 1.007 | 5.27e-06 ± 8e-08 | 860.81 ± 3.6 | 1123 ± 1.3
303.15 K, c1 = 0.0981 | 7.23e-07 ± 1.3e-08 | 695.93 ± 6.2 | 1061.6 ± 1.3
303.15 K, c1 = 0.1983 | 8.13e-07 ± 1.4e-08 | 710.7 ± 6 | 1062.4 ± 1.3
303.15 K, c1 = 0.2986 | 9.27e-07 ± 1.6e-08 | 728.39 ± 5.7 | 1064.5 ± 1.3
303.15 K, c1 = 0.3988 | 1.07e-06 ± 1.8e-08 | 745.5 ± 5.4 | 1066.9 ± 1.3
303.15 K, c1 = 0.5185 | 1.32e-06 ± 2.2e-08 | 767 ± 5.1 | 1071.1 ± 1.3
303.15 K, c1 = 0.6002 | 1.56e-06 ± 2.5e-08 | 785.6 ± 4.8 | 1075 ± 1.3
303.15 K, c1 = 0.6974 | 1.93e-06 ± 3.1e-08 | 804.41 ± 4.5 | 1080.5 ± 1.3
303.15 K, c1 = 0.7972 | 2.53e-06 ± 4e-08 | 820.98 ± 4.2 | 1086.5 ± 1.3
303.15 K, c1 = 0.8975 | 3.43e-06 ± 5.3e-08 | 838.76 ± 3.9 | 1094.1 ± 1.3
303.15 K, c1 = 1.002 | 4.77e-06 ± 7.3e-08 | 856.54 ± 3.6 | 1103.7 ± 1.3
313.15 K, c1 = 0.097 | 6.55e-07 ± 1.2e-08 | 687.78 ± 6.3 | 1020.3 ± 1.3
313.15 K, c1 = 0.1956 | 7.34e-07 ± 1.3e-08 | 700.9 ± 6.1 | 1021.5 ± 1.3
313.15 K, c1 = 0.2946 | 8.29e-07 ± 1.4e-08 | 718.5 ± 5.8 | 1024 ± 1.3
313.15 K, c1 = 0.3949 | 9.53e-07 ± 1.6e-08 | 738.2 ± 5.5 | 1026.6 ± 1.3
313.15 K, c1 = 0.5111 | 1.17e-06 ± 1.9e-08 | 756.1 ± 5.2 | 1031.3 ± 1.3
313.15 K, c1 = 0.5932 | 1.35e-06 ± 2.2e-08 | 776.5 ± 4.9 | 1035.6 ± 1.3
313.15 K, c1 = 0.6899 | 1.67e-06 ± 2.7e-08 | 795.7 ± 4.6 | 1041.3 ± 1.3
313.15 K, c1 = 0.7889 | 2.12e-06 ± 3.4e-08 | 812.51 ± 4.3 | 1048.1 ± 1.3
313.15 K, c1 = 0.8884 | 2.79e-06 ± 4.4e-08 | 830.24 ± 4 | 1055.8 ± 1.3
313.15 K, c1 = 0.9921 | 3.89e-06 ± 6e-08 | 847.98 ± 3.8 | 1065.5 ± 1.3
323.15 K, c1 = 0.0959 | 5.95e-07 ± 1.1e-08 | 680.26 ± 6.5 | 979.8 ± 1.3
323.15 K, c1 = 0.1937 | 6.66e-07 ± 1.2e-08 | 694.2 ± 6.2 | 981.2 ± 1.3
323.15 K, c1 = 0.2919 | 7.5e-07 ± 1.3e-08 | 712 ± 6 | 984.1 ± 1.3
323.15 K, c1 = 0.3904 | 8.59e-07 ± 1.5e-08 | 729.7 ± 5.7 | 987.1 ± 1.3
323.15 K, c1 = 0.505 | 1.04e-06 ± 1.7e-08 | 747 ± 5.4 | 992.3 ± 1.3
323.15 K, c1 = 0.5858 | 1.19e-06 ± 2e-08 | 766.8 ± 5.1 | 996.8 ± 1.3
323.15 K, c1 = 0.6822 | 1.47e-06 ± 2.4e-08 | 786.9 ± 4.8 | 1002.8 ± 1.3
323.15 K, c1 = 0.7807 | 1.83e-06 ± 2.9e-08 | 804.04 ± 4.5 | 1009.9 ± 1.3
323.15 K, c1 = 0.8792 | 2.35e-06 ± 3.7e-08 | 821.7 ± 4.2 | 1018 ± 1.3
323.15 K, c1 = 0.982 | 3.09e-06 ± 4.9e-08 | 839.35 ± 3.9 | 1028 ± 1.3
